Test results reported in patent US10881656B2, “HIF inhibitors and use thereof” (The General Hospital Corporation, priority 2008, dated 2021).

Test system: 786-O cells
Test: Global translation (35S loading control, polysome analysis)
Assay type: cell-based, human
Experimental: DMSO-, rapamycin- or PGJ2-treated 786-O cells were harvested from 10 cm plates for each polysomal analysis. Confluent cells were harvested and lysed in 300 μL ofRSB [10 mmol/L NaCl, 10 mmol/L Tris-HCl (pH 7.4), 15 mmol/L MgCl2] containing 100 μg/mL heparin, 1.2% Triton X-100, and 0.12% deoxycholate. Nuclei were pelleted for 3 min in a microcentrifuge at 4° C. The 300-μL extract was layered over 11.5 mL of a 15% to 45% (wt/wt) sucrose gradient with a 0.5-mL cushion of 45% sucrose. The gradients were centrifuged at 37,000 rpm for 2.5 h in an SW 41 (Beckman) rotor at 4° C. After centrifugation, the A260 was continuously monitored and recorded across the gradient using a Foxy Jr. Density Gradient fractionation system and UA-6 UV/VIS Detector (ISCO, Inc.).
To determine if PGJ2 decreases translation of the HIF2a message, the inventors evaluated the synthesis rate and stability of the newly synthesized HIF2a by an ^35S-methionine pulse chase experiment on PGJ2 or vehicle only DMSO treated 786-O cells. […] Loading control is 1/1000th of the cell lysate used in the respective immunoprecipitation directly loaded into an SDS-PAGE gel.

In the case of `CCCCC/C=C/C=C1/C(=O)C=C[C@@H]1C/C=C\CCCC(=O)O` [PGJ2, 15-deoxy-Δ^12,14-prostaglandin J2], the “global cellular translation (35S-methionine loading control)” value (10 μM) is reported as “does not globally decrease cellular translation” and the “ribosomes actively engaged in translation (polysome analysis)” value (24 hours) is reported as “little effect on the number of ribosomes actively engaged in translation”.
